Reference: patent US11612606B2, “8-aminoisoquinoline compounds and uses thereof” (priority 2018, dated 2023)
Read-outs that look alike come from different tables or passages of the source.

Key:
[1] = Pharmacokinetic study in rat; assay type: in vivo, Sprague Dawley rat; settings: 10% DMSO/60% PEG400/30% Water, Solution; for bioavailability: male, Sprague Dawley, plasma
Experimental: Pharmacokinetic Study in Rat: Male Sprague Dawley rats obtained from Lingchang/Vital River Laboratory Animal Technology Co., Ltd., (Shanghai/Beijing, P.R. China) with body weight ranging between 200 g to 300 g were use in the PK studies. Group of 3 rats were given a 1 mg/kg intravenous bolus (IV) dose of the test article in solution formulation, and another group of 3 rats were given a 2 or 5 mg/kg oral (PO) dose of test article as a 0.5% methylcellulose with 0.2% Tween 80 (MCT) suspension or as a solution. Blood samples (250 μL, per time point) were collected serially via the catheter in femoral artery at 0.033, 0.083, 0.25, 0.5, 1, 2, 4, 6, and 8 hours after IV or PO administration from each of the rat. Blood samples were collected into pre-chilled tubes containing Potassium (K2) EDTA and centrifuged at 3,200 g for 10 minutes at 2 to 8° C. within 1 hour of collection to harvest plasma. Plasma samples were stored at −70° C. until LC/MS/MS analysis. Concentration in each plasma sample was determined by a non-validated LC/MS/MS. Data is acquired using multiple reaction monitoring (MRM) with specific transitions monitored for each compound.
Following PO administration, percent bioavailability (% F) was determined for each animal by dividing the dose normalized area under the plasma concentration-time curve, extrapolated to infinity (AUCinf) obtained following each PO dose by the mean dose normalized AUCinf of the animals dosed by IV injection. All PK parameters are presented as mean±standard deviation (SD).
Pharmacokinetic studies were conducted in rat for exemplary compounds of Formula (I).

[2] = Hepatocyte stability assay; assay type: in vitro ADME; settings: cryopreserved human hepatocytes (10 donor pool, suspension), scaled hepatic clearance, read-out: HHep Clearance
Experimental: (§1) Metabolic stability of compounds are assessed using a hepatocyte stability assay. Cryopreserved human hepatocytes from a 10 donor pool are quickly thawed at 37° C., suspended in prewarmed In VitroGRO™ HT Medium, and then centrifuged at 100×g at room temperature for 10 min. The supernatants are discarded, and cells are resuspended in 5 mL Dulbecco's Modified Eagle Medium (DMEM) medium. Cell viability in suspension is counted on a Hepatometer® Vision (Lonza, N.C.), and viable cells are then adjusted to […] in DMEM. Compounds are first diluted to 2 μM with DMEM medium, and then aliquots of 125 μL of drug-containing medium are transferred to 96-well non-coated plates. Incubation is initiated by the addition of 125 μL of hepatocyte suspension to yield a total incubation volume of 250 μL. Final concentration of each compound is 1 μM, and final cell density is 0.5×10^6 cells/mL. Incubations are conducted in a humidified incubator at 37° C. Aliquots of 50 μL incubation medium are taken out at different time intervals (0, 60, 120 and 180 min), and immediately mixed with 100 μL of ice-cold acetonitrile containing 50 nM propranolol (internal standard). Samples are then centrifuged at 10,000×g for 10 min, and 80 μL of supernatant is taken out and diluted with 160 μL of water prior to LC/MS-MS analysis.
(§2) Human hepatocyte stability was assessed for exemplary compounds of Formula (I) according to the above procedures.

[3] = tested on: primary human pan T cells; assay: Human T-cell IL2 induction assay; assay type: cell-based
Experimental: Assay Principle: Anti-CD3 and anti-CD28 activates TCR signaling in primary human pan T cells leading to IL-2 promoter induction. Secreted IL-2 in cell culture supernatant is detected by electrochemiluminescence using a capture antibody against IL-2 and an anti-IL-2 antibody labeled with SULFO-tag. Also see www.mesoscale.com for additional electrochemiluminescence technology information.
Assay Procedure: Incubate primary human pan T cells with varying concentrations of test compounds for 30 minutes in a humidified incubator at 37° C. and 5% CO2. Transfer cells to a plate pre-coated with a fixed concentration of anti-human CD3 (determined separately for each donor lot) and add soluble anti-human CD28 (final concentration=1 μg/ml). Stimulate cells in a humidified incubator at 37° C. and 5% CO2 for 4 hours. Transfer 25 μl of supernatant to a MSD single spot plate pre-coated with an anti-human IL-2 antibody. Incubate MSD plate overnight at 4° C. with gentle shaking. Wash MSD plate 4× with wash buffer. Add SULFO-tagged detection antibody at a 1:50 dilution and incubate at room temperature shaking for 2 hours. Wash MSD plate 4× with wash buffer and add 150 μl 2×MSD read buffer. Read on an MSD instrument. Normalize data to stimulated/untreated controls to calculate % activity at each concentration of compound.
Instrumentation: • Biomek FX for liquid handling (Beckman Coulter) • MSD SECTOR S 600 (Meso Scale Discovery)
Exemplary compounds of Formula (I) were tested in the human T-cell IL-2 induction assays.

[4] = molecular target: HPK full length, T165E S171E (Homo sapiens (Human), UniProt Q92918, S171E/T165E); assay: HPK1-FL HTRF enzymatic assay ("HTRF"); assay type: biochemical; settings: ATP 1 mM, read-out: HPK1 Ki
HPK full length, T165E S171E, sequence (Q92918 whole entry T165E/S171E, looked up): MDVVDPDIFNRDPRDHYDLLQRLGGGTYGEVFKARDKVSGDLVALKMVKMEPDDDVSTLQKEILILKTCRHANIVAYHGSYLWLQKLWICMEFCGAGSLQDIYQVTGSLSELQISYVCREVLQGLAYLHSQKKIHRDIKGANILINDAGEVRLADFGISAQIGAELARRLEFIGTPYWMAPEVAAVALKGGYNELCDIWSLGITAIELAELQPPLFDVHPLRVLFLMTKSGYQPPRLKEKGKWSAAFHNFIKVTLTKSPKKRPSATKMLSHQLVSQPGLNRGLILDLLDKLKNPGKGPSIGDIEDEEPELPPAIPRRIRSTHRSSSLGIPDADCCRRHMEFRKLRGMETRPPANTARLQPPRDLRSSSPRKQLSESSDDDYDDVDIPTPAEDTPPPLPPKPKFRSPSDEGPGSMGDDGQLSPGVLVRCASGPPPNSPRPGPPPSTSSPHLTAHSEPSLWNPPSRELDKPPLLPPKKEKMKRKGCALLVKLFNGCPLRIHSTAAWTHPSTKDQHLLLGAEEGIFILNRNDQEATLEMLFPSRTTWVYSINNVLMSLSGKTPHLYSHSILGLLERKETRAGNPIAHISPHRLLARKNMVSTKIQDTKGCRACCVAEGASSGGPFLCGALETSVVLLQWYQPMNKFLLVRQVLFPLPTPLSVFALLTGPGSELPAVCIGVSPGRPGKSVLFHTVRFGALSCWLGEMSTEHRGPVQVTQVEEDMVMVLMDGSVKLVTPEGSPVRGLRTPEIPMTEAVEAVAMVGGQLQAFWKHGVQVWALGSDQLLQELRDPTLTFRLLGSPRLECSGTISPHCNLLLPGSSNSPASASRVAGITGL
In short: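 Full-length HPK1 (T165E/S171E) was preincubated 30 min with compound, then reacted 60 min with biotin-SLP-76 and 1 mM ATP. Phospho-SLP-76 was detected by HTRF (Eu-anti-pSLP76 antibody, SA-XL665) after a further 60 min.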

[5] = tested on: phosphorylation of SLP-76 (S376) by HPK-1 in human Jurkat cells; assay: pSLP76 assay (sandwich ELISA, anti-CD3 stimulated Jurkat cells); assay type: cell-based; settings: Jurkat cells, anti-CD3 stimulation, read-out: pSLP76 IC50
Experimental: Phospho-SLP76 (S376) is detected by sandwich ELISA using an anti-pSLP76(S376) capture antibody and a biotinylated anti-SLP76 detection antibody.
Incubate Jurkat cells with varying concentrations of test compounds for 30 minutes in a humidified incubator at 37° C. and 5% CO2. Add anti-CD3 DynaBeads at a 4:1 bead:cell ratio. Stimulate cells in a humidified incubator at 37° C. and 5% CO2 for 10 minutes. Add cold lysis buffer and incubate on a shaker at 4° C. for 30 minutes. Transfer cell lysates to a pre-blocked ELISA plate coated with capture antibody. Incubate at room temperature shaking for 2 hours. Wash ELISA plate 5× with wash buffer and add 25 μl of biotinylated detection antibody at a final concentration of 0.5 μg/ml. Incubate at room temperature shaking for 1 hour. Wash ELISA plate 5× with wash buffer and add 25 μl of streptavidin enzyme conjugate at a final dilution of 1:8000. Incubate at room temperature shaking for 20 minutes. Wash ELISA plate 5× with wash buffer and add 25 μl of TMB substrate solution. Incubate at room temperature in the dark shaking for 20 minutes. Add 25 μl of STOP solution and read on SoftMax Pro for absorbance at 450 nm.
Exemplary compounds of Formula (I) were tested in pSLP76 assays.

[6] = Permeability assay in gMDCKI cells; assay type: in vitro ADME, canine; settings: dog, MDCK, apical-to-basolateral, 2-hour incubation, read-out: MDCK AB Papp
Experimental: (§3) Cell permeability of compounds of interest was assessed in the gMDCKI cell line, which is a modified MDCKI (Madin-Darby canine kidney) originally acquired from American Type Culture Collection (Manassa, Va.) and generated at Genentech. […] Test article was tested at 10 μM in the apical-to-basolateral (A-B) and basolateral-to-apical (B-A) directions. Test compound was dissolved in transport buffer consisting of Hank's balanced salt solution and […] (Invitrogen Corporation, Grand Island, N.Y.). Transepithelial electrical resistance (TEER) and lucifer yellow (LY) permeability were used to monitor monolayer integrity at the beginning and the end of the experiments, respectively. Test articles were analyzed by LC-MS/MS.
(§4) The efflux ratio (ER) is calculated as (Papp, B−A/Papp, A−B).
(§5) Cell permeability were assessed for exemplary compounds of Formula (I).

[7] = tested on: Cryopreserved human hepatocytes; assay: Hepatocyte stability assay; assay type: in vitro ADME; settings: 1 μM, scaled hepatic clearance
Experimental: as §1, §2

gMDCKI cell line = assay: Permeability assay in gMDCKI cells; assay type: in vitro ADME, canine; settings: apical-to-basolateral, 10 μM, 2-hour incubation
Experimental: as §3, §4, §5

Compound	bioavailability ([1]; PO 5 mg/kg)	CLhep predicted at 1 μM [2]	% IL-2 increase relative to untreated cells ([3]; assayed concentration 2.778 μM)	Ki [4]	IC50 ([5]; Homo sapiens)	Papp at 2 h, 10 μM [6]	% F ([1]; PO 2 mg/kg)	HHep Clearance [7]	% IL-2 increase relative to untreated cells ([3]; assayed concentration 1.196 μM)	IC50 [5]	MDCK AB Papp (gMDCKI cell line)	bioavailability ([1]; PO 2 mg/kg)
Cc1c(-c2cc3cc(NC(=O)O[C@H]4C[C@H](C#N)C4)ncc3c(N)c2F)cnc2c1NCCO2 [Compound 484b, (1r,3r)-(3-Cyanocyclobutyl) N-[8-amino-7-fluoro-6-(8-methyl-2,3-dihydro-1H-pyrido[2,3-b][1,4]oxazin-7-yl)-3-isoquinolyl]carbamate]	16%	7.9 mL/min/kg	1782%	0.015 nM	26 nM	19 ×10⁻⁶ cm/s	–	–	–	–	–	–
Cc1c(-c2cc3cc(NC(=O)O[C@H]4C[C@H](C(C)(C)O)C4)ncc3c(N)c2F)cnc2c1NCCO2 [Compound 574a, (1r,3r)-3-(2-Hydroxypropan-2-yl)cyclobutyl (8-amino-7-fluoro-6-(8-methyl-2,3-dihydro-1H-pyrido[2,3-b][1,4]oxazin-7-yl)isoquinolin-3-yl)carbamate]	–	–	–	0.02 nM	–	–	16%	8.3 mL/min/kg	1634%	32 nM	1.2e-05 cm/s	–
Cc1c(-c2cc3cc(NC(=O)N4CC(C)C4)ncc3c(N)c2F)cnc2c1NCCO2 [Compound 751, N-(8-Amino-7-fluoro-6-(8-methyl-2,3-dihydro-1H-pyrido[2,3-b][1,4]oxazin-7-yl)isoquinolin-3-yl)-3-methylazetidine-1-carboxamide]	–	< 6.2 mL/min/kg	1363%	0.044 nM	41 nM	11 ×10⁻⁶ cm/s	–	–	–	–	–	9.4%
Cc1c(-c2cc3cc(NC(=O)N4CC(C)(F)C4)ncc3c(N)c2F)cnc2c1NCCO2 [Compound 755, N-(8-Amino-7-fluoro-6-(8-methyl-2,3-dihydro-1H-pyrido[2,3-b][1,4]oxazin-7-yl)isoquinolin-3-yl)-3-fluoro-3-methylazetidine-1-carboxamide]	4%	6.8 mL/min/kg	1061%	0.09 nM	46 nM	10 ×10⁻⁶ cm/s	–	–	–	–	–	–
